# US11013751B2, “Compositions and methods for treating multiple sclerosis” (Vitalis LLC, priority 2017, dated 2021)
# Tests used:
# [1] = Comparative bioavailability study, monomethyl fumarate plasma pharmacokinetics, single dose, fasting; type: in vivo, human; settings: Treatment A over Treatment B normalized to 180 mg DMF
# Procedure: This was a single center, pilot, comparative bioavailability, open-label, randomized, single-dose, 2-period, 2-sequence, crossover study under fasting conditions. A total of 12 healthy adult male or female volunteers were included in this pilot study. For each period, subjects will be confined from at least 10 hours before dosing until 12 hours post-dose. There were a washout of 7 days or more between doses. The washout period could be increased for logistical considerations. Participation of each subject in this study lasted approximately 9 days.
# The delayed-release capsule were placed on the subject's tongue. Subjects were instructed to suck the delayed-release capsule until the acetylsalicylic acid coating was dissolved or up to a maximum of 1 minute after the delayed-release capsule had been placed on the subject's tongue. The delayed-release capsule should not be chewed, bitten, or swallowed during that 1 minute period or until the coating is dissolved; only the saliva could be swallowed. The subject was instructed to give a hand sign once the acetylsalicylic acid coating was dissolved (the capsule should feel and taste different). Thereafter, or up to a maximum of 1 minute after the delayed-release capsule was placed on the subject's tongue, 240 mL of water was given to subjects to swallow the capsule. Time of dosing was set to the time the capsule was placed on the tongue. […]
# [2] = pretreatment with 325 mg aspirin for 4 days before DMF; cited from earlier work
smiles,measurement,setting,value
"CC(=O)Oc1ccccc1C(=O)O [aspirin, acetylsalicylic acid]",Cmax Change % (A over B),[1],did not have significant impact
same,flushing incidence and intensity,[2],reduced
same,gastrointestinal events,[2],did not affect
same,pharmacokinetic profile of DMF,[2],did not affect
